According to ChEMBL document CHEMBL6078684, “Discovery of a Novel Non-invasive AR PROTAC Degrader for the Topical Treatment of Androgenetic Alopecia” (J Med Chem, 2024):
Calls of active or inactive are those of the source. The rule behind the calls is not given here.

What was measured:
[1] = molecular target: T1, Protein cereblon/Androgen receptor (Homo sapiens, UniProt P10275+Q96SW2); assay: PROTAC activity at CRBN/AR in human dermal papilla cell assessed as induction of AR degradation measured after 24 to 72 hrs by Western blot analysis; format: cell-based
Target sequence in this assay (P10275 whole entry): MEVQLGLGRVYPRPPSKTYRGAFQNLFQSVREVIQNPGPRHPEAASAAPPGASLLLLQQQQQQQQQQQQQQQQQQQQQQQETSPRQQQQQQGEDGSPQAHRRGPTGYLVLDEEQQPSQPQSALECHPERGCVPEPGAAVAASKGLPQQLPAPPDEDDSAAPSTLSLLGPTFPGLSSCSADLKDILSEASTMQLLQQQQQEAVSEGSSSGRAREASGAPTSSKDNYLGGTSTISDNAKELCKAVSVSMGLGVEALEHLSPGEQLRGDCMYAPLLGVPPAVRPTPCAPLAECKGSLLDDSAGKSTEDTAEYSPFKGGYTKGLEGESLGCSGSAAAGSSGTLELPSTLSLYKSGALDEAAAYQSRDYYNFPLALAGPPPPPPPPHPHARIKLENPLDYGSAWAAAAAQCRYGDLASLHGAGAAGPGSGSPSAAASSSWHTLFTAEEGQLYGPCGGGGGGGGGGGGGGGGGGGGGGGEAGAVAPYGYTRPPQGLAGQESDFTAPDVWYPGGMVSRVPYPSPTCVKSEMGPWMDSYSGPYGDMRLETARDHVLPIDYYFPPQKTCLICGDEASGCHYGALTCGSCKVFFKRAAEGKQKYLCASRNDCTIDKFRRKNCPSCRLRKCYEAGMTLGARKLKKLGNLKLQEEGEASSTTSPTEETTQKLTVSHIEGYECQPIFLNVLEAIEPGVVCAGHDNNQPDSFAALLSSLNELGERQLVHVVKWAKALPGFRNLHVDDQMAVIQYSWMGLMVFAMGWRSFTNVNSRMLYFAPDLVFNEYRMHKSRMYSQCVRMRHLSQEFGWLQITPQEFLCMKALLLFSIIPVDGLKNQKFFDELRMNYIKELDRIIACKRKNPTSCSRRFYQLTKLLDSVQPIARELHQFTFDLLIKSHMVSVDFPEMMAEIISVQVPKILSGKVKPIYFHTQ
Target sequence in this assay (Q96SW2 whole entry): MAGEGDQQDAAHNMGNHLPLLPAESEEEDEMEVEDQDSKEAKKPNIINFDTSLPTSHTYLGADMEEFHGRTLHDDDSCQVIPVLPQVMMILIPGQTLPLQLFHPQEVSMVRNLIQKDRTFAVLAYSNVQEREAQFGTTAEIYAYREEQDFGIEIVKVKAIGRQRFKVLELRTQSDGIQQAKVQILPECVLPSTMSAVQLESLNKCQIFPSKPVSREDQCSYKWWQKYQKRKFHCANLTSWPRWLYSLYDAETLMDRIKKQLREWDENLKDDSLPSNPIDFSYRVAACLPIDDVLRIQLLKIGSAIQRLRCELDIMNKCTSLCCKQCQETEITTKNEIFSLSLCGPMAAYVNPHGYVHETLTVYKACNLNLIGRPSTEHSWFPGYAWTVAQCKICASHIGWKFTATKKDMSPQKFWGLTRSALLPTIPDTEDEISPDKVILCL

[2] = Ratio of drug concentration in male ICR mouse skin to heart at 4 mg/ml, TOP measured after 0.25 hrs by LC-MS/MS analysis; format: ADME, tissue-based; conditions: in vivo, topical_or_ocular
[3] = molecular target: T2, Protein cereblon/Androgen receptor (Mus musculus) (UniProt P19091+Q8C7D2); assay: In vivo PROTAC activity at CRBN/AR in testosterone induced male C57BL/6 mouse androgenetic alopecia model assessed as decrease in AR protein level in skin at 0.4 % TOP administered once daily for 14 days with co-administration of 0.2% testosterone for 28 days by Western blot analysis relative to control; format: functional, organism-based; parameters: scale not given: the % may be the effect or the level left; conditions: time 14.0 day
T2 sequence (P19091 whole entry, looked up): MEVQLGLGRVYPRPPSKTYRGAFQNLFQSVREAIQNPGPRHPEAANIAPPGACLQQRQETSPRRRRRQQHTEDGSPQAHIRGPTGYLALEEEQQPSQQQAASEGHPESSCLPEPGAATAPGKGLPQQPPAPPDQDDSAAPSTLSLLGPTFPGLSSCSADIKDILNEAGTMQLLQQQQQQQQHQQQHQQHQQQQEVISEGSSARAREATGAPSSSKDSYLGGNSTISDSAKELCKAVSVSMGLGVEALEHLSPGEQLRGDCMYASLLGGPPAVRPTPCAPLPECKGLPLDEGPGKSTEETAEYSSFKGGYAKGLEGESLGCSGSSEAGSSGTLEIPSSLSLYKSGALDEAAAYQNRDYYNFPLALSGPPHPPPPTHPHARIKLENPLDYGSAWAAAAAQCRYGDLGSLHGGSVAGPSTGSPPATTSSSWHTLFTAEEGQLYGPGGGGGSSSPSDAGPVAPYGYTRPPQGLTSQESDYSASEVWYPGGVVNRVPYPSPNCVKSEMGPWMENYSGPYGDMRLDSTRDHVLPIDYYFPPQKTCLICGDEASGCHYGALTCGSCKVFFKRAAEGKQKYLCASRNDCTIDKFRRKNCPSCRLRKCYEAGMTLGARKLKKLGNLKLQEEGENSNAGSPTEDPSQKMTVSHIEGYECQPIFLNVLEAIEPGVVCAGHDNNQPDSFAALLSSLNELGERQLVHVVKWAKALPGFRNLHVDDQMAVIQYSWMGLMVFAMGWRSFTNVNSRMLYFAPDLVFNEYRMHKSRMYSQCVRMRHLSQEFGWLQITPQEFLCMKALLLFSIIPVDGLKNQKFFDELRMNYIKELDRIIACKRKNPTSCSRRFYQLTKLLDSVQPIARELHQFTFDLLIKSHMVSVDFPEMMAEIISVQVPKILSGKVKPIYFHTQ
T2 sequence (Q8C7D2 whole entry, looked up): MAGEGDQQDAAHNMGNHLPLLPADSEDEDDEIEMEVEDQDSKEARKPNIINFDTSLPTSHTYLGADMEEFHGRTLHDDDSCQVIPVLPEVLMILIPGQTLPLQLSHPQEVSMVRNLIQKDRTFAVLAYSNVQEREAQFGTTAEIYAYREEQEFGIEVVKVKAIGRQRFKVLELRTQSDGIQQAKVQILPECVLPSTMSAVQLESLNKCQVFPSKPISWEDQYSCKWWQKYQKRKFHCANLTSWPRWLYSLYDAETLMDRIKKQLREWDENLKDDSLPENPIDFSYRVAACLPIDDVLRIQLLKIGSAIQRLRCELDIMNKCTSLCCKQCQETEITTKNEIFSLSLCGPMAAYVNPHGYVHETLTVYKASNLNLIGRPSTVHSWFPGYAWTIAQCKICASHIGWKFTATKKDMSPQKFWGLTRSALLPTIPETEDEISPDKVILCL

[4] = Ratio of drug concentration in male ICR mouse skin to kidney at 4 mg/ml, TOP measured after 0.5 hrs by LC-MS/MS analysis; format: ADME, tissue-based; conditions: in vivo, topical_or_ocular
[5] = molecular target: T1, Protein cereblon/Androgen receptor; assay: PROTAC activity at CRBN/AR in human dermal papilla cells assessed as inhibition of TGF-beta1 release by measuring fold change in TGF-beta1 concentration at 1 uM preincubated with testosterone for 24 hrs followed by compound addition and measured after 48 hrs by ELISA relative to minoxidil; format: cell-based; conditions: Human dermal papilla cell
Target sequence in this assay (P10275 whole entry, looked up): as the sequence (P10275 whole entry) above
Target sequence in this assay (Q96SW2 whole entry, looked up): as the sequence (Q96SW2 whole entry) above

[6] = test system: Mus musculus; assay: Hair regeneration efficacy in testosterone induced male C57BL/6 mouse androgenetic alopecia model assessed as increase in hair diameter at 0.1 %, TOP administered once daily for 14 days with co-administration of 0.2% testosterone and measured after 28 days by SEM analysis; format: functional, organism-based; conditions: time 28.0 day
[7] = Ratio of drug concentration in male ICR mouse skin to lungs at 4 mg/ml, TOP measured after 12 hrs by LC-MS/MS analysis; format: ADME, tissue-based, Skin/Lung; conditions: in vivo, topical_or_ocular
[8] = molecular target: T2, Protein cereblon/Androgen receptor (Mus musculus); assay: In vivo PROTAC activity at CRBN/AR in testosterone induced male C57BL/6 mouse androgenetic alopecia model assessed as decrease in AR protein level in skin at 0.1 to 0.4 % TOP administered once daily for 14 days with co-administration of 0.2% testosterone for 28 days by Western blot analysis; format: functional, organism-based; conditions: dose 0.1-0.4 %, time 14.0 day
[9] = test system: Mus musculus; assay: Hair regeneration efficacy in testosterone induced male C57BL/6 mouse androgenetic alopecia model assessed as improvement in morphology of regenerated hair at 0.1 %, TOP administered once daily for 14 days with co-administration of 0.2% testosterone and measured after 28 days by SEM analysis; format: functional, organism-based; conditions: time 28.0 day
[10] = Ratio of drug concentration in male ICR mouse skin to kidney at 4 mg/ml, TOP measured after 8 hrs by LC-MS/MS analysis; format: ADME, tissue-based; conditions: in vivo, topical_or_ocular
[11] = Ratio of drug concentration in male ICR mouse skin to kidney at 4 mg/ml, TOP measured after 2 hrs by LC-MS/MS analysis; format: ADME, tissue-based; conditions: in vivo, topical_or_ocular
[12] = test system: Mus musculus; assay: Hair regeneration efficacy in testosterone induced male C57BL/6 mouse androgenetic alopecia model at 0.1 to 0.4 %, TOP administered once daily for 14 days and measured after 21 days with co-administration of 0.2% testosterone for 28 days by photographic analysis; format: functional, organism-based; conditions: dose 0.1-0.4 %, time 14.0 day
[13] = test system: Mus musculus; assay: Hair regeneration efficacy in testosterone induced male C57BL/6 mouse androgenetic alopecia model assessed as generation of thick hair with intact scales at 0.4 %, TOP administered once daily for 14 days with co-administration of 0.2% testosterone and measured after 28 days by SEM analysis; format: functional, organism-based; conditions: time 28.0 day
[14] = Ratio of drug concentration in male ICR mouse skin to lungs at 4 mg/ml, TOP measured after 2 hrs by LC-MS/MS analysis; format: ADME, tissue-based, Skin/Lung; conditions: in vivo, topical_or_ocular

DC50 [1]: 200 nM
Ratio [2]: 333.81
Activity [3]: > 50%
Ratio [4]: 190.39
fold change (FC) [5]: 0.77
Ratio [7]: 288.26
Activity [8]: Active
Ratio [10]: 191.71
Ratio [11]: 410.02
Ratio [14]: 198.98
SMILES: N#Cc1ccc(O[C@H]2CC[C@H](NC(=O)c3ccc(C4CCN(CC5CCCN(c6ccc(C(=O)NC7CCC(=O)NC7=O)cc6)C5)CC4)cc3)CC2)cc1Cl (some centres undefined)
Activity [6]: Active
Activity [9]: Active
Activity [12]: Active
Activity [13]: Active
